Data taken from ChEMBL document CHEMBL1150513, “A Hammett correlation for CC-1065 and duocarmycin analogs: Magnitude of substituent electronic effects on functional reactivity” (Bioorg Med Chem Lett, 1996).
Several values for one entry are separate records, joined by “and”; a condition that tells them apart may be missing. Identical values can stand only once.

Experiments:
[1] = Half life at a pH of 3.0.; type: ADME; conditions: pH 3
[2] = Aqueous solvolysis, K value at a pH of 3.0.; type: ADME; conditions: buffer, pH 3
L1210 = assay: Compound was tested in vitro for cytotoxic potency against L1210 leukemia.; type: functional, cell-based; conditions: Mus musculus
[3] = Half life at a pH of 2.0.; type: ADME; conditions: pH 2
[4] = Aqueous solvolysis, K value at a pH of 2.0.; type: ADME; conditions: buffer, pH 2
[5] = Half life at 0.1 equivalent H+ and 20 equivalent CH3OH.; type: ADME
[6] = Half life at 0.1 equivalent H+ and 500 equivalent CH3OH.; type: ADME
[7] = Half life at 0.25 equivalent H+ and 100 equivalent CH3OH.; type: ADME
[8] = Kinetic constant at 0.1 equivalent H+ and 100 equivalent CH3OH.; type: ADME
[9] = Kinetic constant at 0.1 equivalent H+ and 20 equivalent CH3OH.; type: ADME
[10] = Kinetic constant at 0.1 equivalent H+ and 500 equivalent CH3OH.; type: ADME
[11] = Kinetic constant at 0.25 equivalent H+ and 100 equivalent CH3OH.; type: ADME

SMILES	half-life [1] [h]	k [2] [s⁻¹]	IC50 (L1210) [nM]	further results
CC(C)(C)OC(=O)N1CC[C@H]2C[C@@]23C1=CC(=O)c1ccccc13	2.1	9.07e-06	2000	
COc1ccc2c(c1)[C@@]13C[C@@H]1CN(C(=O)OC(C)(C)C)C3=CC2=O	110	1.75e-06	90	half-life [3]: 11.8 h; k [4]: 1.62e-05 s⁻¹
CCC(=O)N1C[C@H]2C[C@@]23C1=CC(=O)c1ccccc13	96	2e-06	110	
CC(C)(C)OC(=O)N1C[C@H]2C[C@@]23C1=CC(=O)c1ccccc13	133	1.45e-06	80	k [4]: 1.53e-05 s⁻¹
COC(=O)[C@]1(C)N=C2C(=O)C=C3N(C(=O)OC(C)(C)C)C[C@H]4C[C@@]34C2=C1O		1.75e-06	1000	
COC(=O)c1cc2c([nH]1)C(=O)C=C1N(C(=O)OC(C)(C)C)C[C@H]3C[C@]123		1.08e-06		
CCS(=O)(=O)N1C[C@H]2C[C@@]23C1=CC(=O)c1ccccc13	383	5e-07	24	
CC(C)(C)OC(=O)N1C[C@H]2C[C@]23C=CC(=O)C=C13	0.01	1.98e-06	18000	
Cc1c[nH]c2c1[C@@]13C[C@@H]1CN(C(=O)OC(C)(C)C)C3=CC2=O		5.26e-06		
CC(C)(C)OC(=O)N1C[C@H]2C[C@@]23C1=CC(=O)c1ccc(C#N)cc13	213	9e-07	20	half-life [5]: 9.2 h; T1/2 [6]: 0.92 h and 0.34 h; half-life [7]: 0.26 h; half-life [3]: 24.2 h; k [8]: 2.1 s⁻¹; k [9]: 0.2 s⁻¹; k [10]: 5.6 s⁻¹; k [4]: 7.9e-06 s⁻¹; k [11]: 7.4 s⁻¹
COC(=O)N1C[C@H]2C[C@@]23C1=CC(=O)c1ccccc13	57	3.4e-06	140	
CNC(=O)N1C[C@H]2C[C@@]23C1=CC(=O)c1ccccc13	36	5.3e-06	200	
